Assay results published in ChEMBL document CHEMBL1137636, “Genetic characteristics and clonal dissemination of beta-lactamase-negative ampicillin-resistant Haemophilus influenzae strains isolated from the upper respiratory tract of patients in Japan” (2007).
Values after ≈ are worked out from the molar mass of the structure shown.

Assays:
Type in all cases: functional
Haemophilus influenzae [1] = test: Antibacterial activity against genetically beta-lactamase-positive amoxicillin-clavulanate-resistant Haemophilus influenzae type b with an amino acid substitution in highly mutated locus Ser-385 of ftsI gene by broth microdilution method
Haemophilus influenzae [2] = test: Antibacterial activity against genetically beta-lactamase-negative ampicillin-susceptible Haemophilus influenzae type b without amino acid substitutions in ftsI gene and bla gene by broth microdilution method
Haemophilus influenzae [3] = test: Antibacterial activity against genetically beta-lactamase-negative ampicillin-resistant Haemophilus influenzae type b with an amino acid substitution in variable mutated locus Asn-526 or Arg-517 of ftsI gene by broth microdilution method
Haemophilus influenzae [4] = test: Antibacterial activity against genetically beta-lactamase-negative ampicillin-resistant Haemophilus influenzae type b with an amino acid substitution in highly mutated locus Ser-385 of ftsI gene by broth microdilution method
Haemophilus influenzae [5] = test: Antibacterial activity against genetically beta-lactamase-positive amoxicillin-clavulanate-resistant Haemophilus influenzae type b with an amino acid substitution in variable mutated locus Asn-526 or Arg-517 of ftsI gene by broth microdilution method
Haemophilus influenzae [6] = test: Antibacterial activity against genetically […] but without an amino acid substitution in ftsI gene by broth microdilution method
Haemophilus influenzae [7] = test: Antibacterial activity against genetically beta-lactamase-negative ampicillin-susceptible Haemophilus influenzae type b without amino acid substitutions in ftsI gene and bla gene assessed as susceptibility rate by broth microdilution method
Haemophilus influenzae [8] = test: Antibacterial activity against genetically beta-lactamase-negative ampicillin-resistant Haemophilus influenzae type b with an amino acid substitution in variable mutated locus Asn-526 or Arg-517 of ftsI gene assessed as susceptibility rate by broth microdilution method
Haemophilus influenzae [9] = test: Antibacterial activity against genetically beta-lactamase-negative ampicillin-resistant Haemophilus influenzae type b with an amino acid substitution in highly mutated locus Ser-385 of ftsI gene assessed as susceptibility rate by broth microdilution method
Haemophilus influenzae [10] = test: Antibacterial activity against genetically beta-lactamase-positive amoxicillin-clavulanate-resistant Haemophilus influenzae type b with an amino acid substitution in variable mutated locus Asn-526 or Arg-517 of ftsI gene assessed as susceptibility rate by broth microdilution method
Haemophilus influenzae [11] = test: Antibacterial activity against genetically beta-lactamase-positive amoxicillin-clavulanate-resistant Haemophilus influenzae type b with an amino acid substitution in highly mutated locus Ser-385 of ftsI gene assessed as susceptibility rate by broth microdilution method
Haemophilus influenzae [12] = test: Antibacterial activity against genetically […] but without an amino acid substitution in ftsI gene assessed as susceptibility rate by broth microdilution method
Haemophilus influenzae [13] = test: Antibacterial activity against genetically beta-lactamase-negative ampicillin-susceptible Haemophilus influenzae type b without amino acid substitutions in ftsI gene and bla gene assessed as resistance rate by broth microdilution method
Haemophilus influenzae [14] = test: Antibacterial activity against genetically beta-lactamase-negative ampicillin-resistant Haemophilus influenzae type b with an amino acid substitution in variable mutated locus Asn-526 or Arg-517 of ftsI gene assessed as resistance rate by broth microdilution method
Haemophilus influenzae [15] = test: Antibacterial activity against genetically beta-lactamase-negative ampicillin-resistant Haemophilus influenzae type b with an amino acid substitution in highly mutated locus Ser-385 of ftsI gene assessed as resistance rate by broth microdilution method
Haemophilus influenzae [16] = test: Antibacterial activity against genetically beta-lactamase-positive amoxicillin-clavulanate-resistant Haemophilus influenzae type b with an amino acid substitution in variable mutated locus Asn-526 or Arg-517 of ftsI gene assessed as resistance rate by broth microdilution method
Haemophilus influenzae [17] = test: Antibacterial activity against genetically beta-lactamase-positive amoxicillin-clavulanate-resistant Haemophilus influenzae type b with an amino acid substitution in highly mutated locus Ser-385 of ftsI gene assessed as resistance rate by broth microdilution method
Haemophilus influenzae [18] = test: Antibacterial activity against genetically […] but without an amino acid substitution in ftsI gene assessed as resistance rate by broth microdilution method
Haemophilus influenzae [19] = test: Antibacterial activity against beta-lactamase-negative ampicillin-resistant Haemophilus influenzae by Etest
Haemophilus influenzae [20] = test: Antibacterial activity against beta-lactamase-negative ampicillin-resistant Haemophilus influenzae with mutation in AcrAB repressor gene […]

| Compound | MIC50 (Haemophilus influenzae [2]) [µg/mL] | MIC90 (Haemophilus influenzae [2]) [µg/mL] | MIC50 (Haemophilus influenzae [3]) [µg/mL] | MIC90 (Haemophilus influenzae [3]) [µg/mL] | MIC50 (Haemophilus influenzae [4]) [µg/mL] | MIC90 (Haemophilus influenzae [4]) [µg/mL] | Activity (Haemophilus influenzae [7]) [%] | Activity (Haemophilus influenzae [8]) [%] | Activity (Haemophilus influenzae [9]) [%] | Activity (Haemophilus influenzae [13]) [%] | Activity (Haemophilus influenzae [14]) [%] | Activity (Haemophilus influenzae [15]) [%] | further results |
| --- | --- | --- | --- | --- | --- | --- | --- | --- | --- | --- | --- | --- | --- |
| CC1(C)S[C@@H]2[C@H](NC(=O)[C@H](N)c3ccccc3)C(=O)N2[C@H]1C(=O)O [AMPICILLIN] | 0.5 (≈ 1.43 µM) | 0.5 (≈ 1.43 µM) | 0.5 (≈ 1.43 µM) | 2 (≈ 5.72 µM) | 4 (≈ 11.4 µM) | 16 (≈ 45.8 µM) | 100 | 68.4 | 9.5 | 0 | 8.1 | 71.6 | MIC50 (Haemophilus influenzae [1]): > 128 µg/mL; MIC90 (Haemophilus influenzae [1]): > 128 µg/mL; MIC50 (Haemophilus influenzae [5]): 128 µg/mL; MIC90 (Haemophilus influenzae [5]): 128 µg/mL; MIC50 (Haemophilus influenzae [6]): 64 µg/mL (≈ 183 µM); MIC90 (Haemophilus influenzae [6]): > 128 µg/mL; Activity (Haemophilus influenzae [10]): 0%; Activity (Haemophilus influenzae [11]): 0%; Activity (Haemophilus influenzae [12]): 0%; Activity (Haemophilus influenzae [16]): 100%; Activity (Haemophilus influenzae [17]): 100%; Activity (Haemophilus influenzae [18]): 100%; MIC (Haemophilus influenzae [19]): 256 µg/mL (≈ 733 µM); MIC (Haemophilus influenzae [20]): 8 µg/mL (≈ 22.9 µM) |
| CC[C@H]1OC(=O)[C@H](C)[C@@H](O[C@H]2C[C@@](C)(OC)[C@@H](O)[C@H](C)O2)[C@H](C)[C@@H](O[C@@H]2O[C@H](C)C[C@H](N(C)C)[C@H]2O)[C@](C)(O)C[C@@H](C)CN(C)[C@H](C)[C@@H](O)[C@]1(C)O [AZITHROMYCIN] | 2 (≈ 2.67 µM) | 4 (≈ 5.34 µM) | 2 (≈ 2.67 µM) | 4 (≈ 5.34 µM) | 2 (≈ 2.67 µM) | 4 (≈ 5.34 µM) | 98.8 | 95.9 | 97.3 | 1.2 | 4.1 | 2.7 | – |
| CO/N=C(\C(=O)N[C@@H]1C(=O)N2C(C(=O)OCOC(=O)C(C)(C)C)=C(/C=C\c3scnc3C)CS[C@H]12)c1csc(N)n1 [CEFDITOREN PIVOXIL] | ≤ 0.06 | ≤ 0.06 | ≤ 0.06 | 0.12 (≈ 0.193 µM) | 0.25 (≈ 0.403 µM) | 0.5 (≈ 0.805 µM) | – | – | – | – | – | – | – |
| COCC1=C(C(=O)O)N2C(=O)[C@@H](NC(=O)/C(=N\OC)c3csc(N)n3)[C@H]2SC1 [CEFPODOXIME] | 0.12 (≈ 0.281 µM) | 0.12 (≈ 0.281 µM) | 0.25 (≈ 0.585 µM) | 2 (≈ 4.68 µM) | 8 (≈ 18.7 µM) | 16 (≈ 37.4 µM) | 100 | 90.8 | 9.1 | 0 | 9.2 | 91.9 | – |
| CO/N=C(\C(=O)N[C@@H]1C(=O)N2C(C(=O)O)=C(COC(N)=O)CS[C@H]12)c1ccco1 [CEFUROXIME] | 1 (≈ 2.36 µM) | 2 (≈ 4.71 µM) | 2 (≈ 4.71 µM) | 16 (≈ 37.7 µM) | 64 (≈ 151 µM) | 128 (≈ 302 µM) | 97.7 | 66.3 | 1.4 | 1.2 | 21.4 | 94.6 | – |
| CC[C@H]1OC(=O)[C@H](C)[C@@H](O[C@H]2C[C@@](C)(OC)[C@@H](O)[C@H](C)O2)[C@H](C)[C@@H](O[C@@H]2O[C@H](C)C[C@H](N(C)C)[C@H]2O)[C@](C)(OC)C[C@@H](C)C(=O)[C@H](C)[C@@H](O)[C@]1(C)O [CLARITHROMYCIN] | 8 (≈ 10.7 µM) | 16 (≈ 21.4 µM) | 8 (≈ 10.7 µM) | 16 (≈ 21.4 µM) | 8 (≈ 10.7 µM) | 16 (≈ 21.4 µM) | 79.3 | 75.5 | 60.8 | 3.5 | 2 | 0 | – |
| C[C@H]1COc2c(N3CCN(C)CC3)c(F)cc3c(=O)c(C(=O)O)cn1c23.C[C@H]1COc2c(N3CCN(C)CC3)c(F)cc3c(=O)c(C(=O)O)cn1c23.O [LEVOFLOXACIN] | ≤ 0.06 | ≤ 0.06 | ≤ 0.06 | ≤ 0.06 | ≤ 0.06 | ≤ 0.06 | 100 | 100 | 100 | 0 | 0 | 0 | – |
| C[C@@H](O)[C@H]1C(=O)N2C(C(=O)O)=C(S[C@@H]3CN[C@H](C(=O)N(C)C)C3)[C@H](C)[C@H]12 [MEROPENEM] | ≤ 0.06 | ≤ 0.06 | 0.12 (≈ 0.313 µM) | 0.25 (≈ 0.652 µM) | 0.25 (≈ 0.652 µM) | 0.5 (≈ 1.3 µM) | 100 | 100 | 90.5 | 0 | 0 | 9.5 | – |
| CC[C@H]1OC(=O)[C@H](C)C(=O)[C@H](C)[C@@H](O[C@@H]2O[C@H](C)C[C@H](N(C)C)[C@H]2O)[C@](C)(OC)C[C@@H](C)C(=O)[C@H](C)[C@H]2N(CCCCn3cnc(-c4cccnc4)c3)C(=O)O[C@]12C [TELITHROMYCIN] | 2 (≈ 2.46 µM) | 4 (≈ 4.93 µM) | 2 (≈ 2.46 µM) | 4 (≈ 4.93 µM) | 2 (≈ 2.46 µM) | 4 (≈ 4.93 µM) | 97.7 | 93.9 | 87.8 | 0 | 0 | 0 | – |
